Patent US20190031618A1, “BENZIMIDAZOLE DERIVATIVES USEFUL AS CB-1 INVERSE AGONISTS” (Janssen Pharmaceutica NV, priority 2015, published 2019)
pEC50: −log10 of the molar value.

Assays:
[1] = target: Human CB1R (Cannabinoid receptor 1) (Homo sapiens, UniProt P21554); test: CB-1 in vitro cAMP (HTRF) assay; format: cell-based; details: HEK cells, cAMP HTRF, 250 nM forskolin; mean where tested more than once; read-out: CB1 HEK_cAMP EC50
Summary of the method: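 Intracellular cAMP from HTRF ratio (d2-cAMP vs Eu-cryptate anti-cAMP), converted to nM via per-plate standards, in stable human CB1R HEK-293 cells.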

[2] = target: Human CB2R (Cannabinoid receptor 2) (Homo sapiens, UniProt P34972); test: CB-2 in vitro cAMP (HTRF) assay; format: cell-based; details: HEK cells, cAMP HTRF, 250 nM forskolin; mean where tested more than once; read-out: CB2 HEK_cAMP EC50
Summary of the method: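 Competitive HTRF read-out (d2-labelled cAMP vs cryptate antibody) quantifies cAMP in stably transfected HEK-293 cells, seeded the day before at 4E5 cells/mL. Stimulation buffer: HBSS, 5 mM HEPES, 0.1% BSA, 0.5 mM IBMX; forskolin prepared at 1.5 μM in buffer; compounds serially diluted 1/3 in DMSO.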

Chain of Human CB1R (Cannabinoid receptor 1) (P21554 whole entry): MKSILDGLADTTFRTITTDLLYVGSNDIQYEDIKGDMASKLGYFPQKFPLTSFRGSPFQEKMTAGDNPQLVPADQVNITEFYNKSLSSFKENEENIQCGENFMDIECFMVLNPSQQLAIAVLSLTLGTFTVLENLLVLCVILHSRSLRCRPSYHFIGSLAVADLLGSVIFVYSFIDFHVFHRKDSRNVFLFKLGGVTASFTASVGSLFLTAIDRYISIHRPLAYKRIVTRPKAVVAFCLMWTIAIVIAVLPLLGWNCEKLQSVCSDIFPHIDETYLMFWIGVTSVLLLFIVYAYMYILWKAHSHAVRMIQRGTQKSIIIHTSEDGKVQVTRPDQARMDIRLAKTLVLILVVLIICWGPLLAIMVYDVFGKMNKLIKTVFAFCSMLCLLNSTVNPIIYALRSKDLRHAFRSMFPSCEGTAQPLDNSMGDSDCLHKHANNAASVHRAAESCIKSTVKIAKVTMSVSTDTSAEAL
Chain of Human CB2R (Cannabinoid receptor 2) (P34972 whole entry): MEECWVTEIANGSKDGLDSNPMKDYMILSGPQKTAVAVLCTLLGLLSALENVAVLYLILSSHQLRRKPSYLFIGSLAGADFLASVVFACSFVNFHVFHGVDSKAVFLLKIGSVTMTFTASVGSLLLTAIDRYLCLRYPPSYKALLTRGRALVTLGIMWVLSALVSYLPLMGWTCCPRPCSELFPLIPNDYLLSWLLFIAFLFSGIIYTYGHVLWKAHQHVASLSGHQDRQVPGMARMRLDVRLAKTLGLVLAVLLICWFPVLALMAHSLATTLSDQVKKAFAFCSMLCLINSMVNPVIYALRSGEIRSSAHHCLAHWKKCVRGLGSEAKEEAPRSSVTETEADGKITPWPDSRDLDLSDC

| SMILES | pEC50 [1] | pEC50 [2] |
| --- | --- | --- |
| COCC(c1ccc(Cl)cc1)(c1ccc(Cl)cc1)c1ccc2nc(C3CC3)n(C3CCN(S(=O)(=O)c4ccc(C(=O)O)c(Cl)c4)CC3)c2c1 [Example 178] | 7.17 | < 5.00 |
| COc1ccc(-n2c(C3CC3)nc3ccc(C(c4ccc(Cl)cc4)c4ccc(Cl)cc4)cc32)cc1 [Example 179] | 8.77 | < 5.00 |
| Oc1cccc(-n2c(C3CC3)nc3ccc(C(c4ccc(Cl)cc4)c4ccc(Cl)cc4)cc32)c1 [Example 180] | 7.77 | < 5.00 |
| COc1cccc(-n2c(C3CC3)nc3ccc(C(c4ccc(Cl)cc4)c4ccc(Cl)cc4)cc32)c1 [Example 181] | 7.60 | < 5.00 |
| NC(=O)COc1ccc(Cn2c(C3CC3)nc3ccc(C(c4ccc(Cl)cc4)c4ccc(Cl)cc4)cc32)cc1 [Example 182] | 6.59 | 5.53 |
| Oc1ccc(Cn2c(C3CC3)nc3ccc(C(c4ccc(Cl)cc4)c4ccc(Cl)cc4)cc32)cc1 [Example 183] | 7.50 | 5.20 |
| NC(=O)c1ccc(S(=O)(=O)N2CCC(n3c(C4CC4)nc4ccc(C(c5ccc(Cl)cc5)c5ccc(Cl)cc5)cc43)CC2)cc1C(F)(F)F [Example 184] | 7.50 | < 5.00 |
| CNC(=O)c1cccc(S(=O)(=O)N2CCC(n3c(C4CC4)nc4ccc(C(c5ccc(Cl)cc5)c5ccc(Cl)cc5)cc43)CC2)c1 [Example 186] | 7.60 | < 5.00 |
| COc1ccc(S(=O)(=O)N2CCC(n3c(C4CC4)nc4ccc(C(c5ccc(Cl)cc5)c5ccc(Cl)cc5)cc43)CC2)cc1C(N)=O [Example 187] | 7.29 | < 5.00 |
| Cc1ccc(S(=O)(=O)N2CCC(n3c(C4CC4)nc4ccc(C(c5ccc(Cl)cc5)c5ccc(Cl)cc5)cc43)CC2)cc1C(=O)O [Example 188] | 6.80 | < 5.00 |
| NC(=O)c1ccc(S(=O)(=O)N2CCC(n3c(C4CC4)nc4ccc(C(c5ccc(Cl)cc5)c5ccc(Cl)cc5)cc43)CC2)cc1F [Example 189] | 7.53 | < 5.00 |
| O=C(O)c1ccc(S(=O)(=O)N2CCC(n3c(C4CC4)nc4ccc(C(c5ccc(Cl)cc5)c5ccc(Cl)cc5)cc43)CC2)cc1F [Example 190] | 7.95 | 6.16 |
| O=C(NCCCO)c1cccc(S(=O)(=O)N2CCC(n3c(C4CC4)nc4ccc(C(c5ccc(Cl)cc5)c5ccc(Cl)cc5)cc43)CC2)c1 [Example 191] | 7.68 | < 5.00 |
| COc1cc(S(=O)(=O)N2CCC(n3c(C4CC4)nc4ccc(C(CO)(c5ccc(Cl)cc5)c5ccc(Cl)cc5)cc43)CC2)ccc1C(N)=O [Example 192] | 5.30 | < 5.00 |
| COc1cc(S(=O)(=O)N2CCC(n3c(C4CC4)nc4ccc(C(CO)(c5ccc(Cl)cc5)c5ccc(Cl)cc5)cc43)CC2)ccc1C(=O)O [Example 193] | < 5.00 | < 5.00 |
| O=C(c1c[nH]nn1)N1CCC(n2c(C3CC3)nc3ccc(C(c4ccccc4)c4ccccc4)cc32)CC1 [Example 198] | 5.32 | < 5.00 |
| O=C(c1cn[nH]n1)N1CCC(n2c(C3CC3)nc3ccc(C(c4ccc(Cl)cc4)c4ccc(Cl)cc4)cc32)CC1 [Example 199] | 6.76 | 5.19 |
| O=C(c1nc[nH]n1)N1CCC(n2c(C3CC3)nc3ccc(C(c4ccccc4)c4ccccc4)cc32)CC1 [Example 200] | 5.33 | 5.20 |
| O=C(c1nc[nH]n1)N1CCC(n2c(C3CC3)nc3ccc(C(c4ccc(Cl)cc4)c4ccc(Cl)cc4)cc32)CC1 [Example 201] | 7.20 | 6.00 |
| O=S(=O)(N1CCC(n2c(C3CC3)nc3c(O)cc(C(c4ccc(Cl)cc4)c4ccc(Cl)cc4)cc32)CC1)C(F)(F)F [Example 202] | 7.51 | < 5.00 |
| COC(=O)CCNC(=O)c1cccc(S(=O)(=O)N2CCC(n3c(C4CC4)nc4ccc(C(c5ccc(Cl)cc5)c5ccc(Cl)cc5)cc43)CC2)c1 [Example 203] | 7.49 | < 5.00 |
| O=C(NCCO)c1ccc(S(=O)(=O)N2CCC(n3c(C4CC4)nc4ccc(C(c5ccc(Cl)cc5)c5ccc(Cl)cc5)cc43)CC2)cn1 [Example 204] | 7.03 | < 5.00 |
| O=C(NCCO)c1cccc(S(=O)(=O)N2CCC(n3c(C4CC4)nc4ccc(C(c5ccc(Cl)cc5)c5ccc(Cl)cc5)cc43)CC2)c1 [Example 205] | 7.44 | 5.24 |
| Cc1cc(S(=O)(=O)N2CCC(n3c(C4CC4)nc4ccc(C(c5ccc(Cl)cc5)c5ccc(Cl)cc5)cc43)CC2)ccc1C(N)=O [Example 206] | 7.00 | < 5.00 |
| Cc1cc(S(=O)(=O)N2CCC(n3c(C4CC4)nc4ccc(C(c5ccc(Cl)cc5)c5ccc(Cl)cc5)cc43)CC2)ccc1C(=O)O [Example 207] | 8.19 | 5.33 |

| SMILES | pEC50 [1] | pEC50 [2] |
| --- | --- | --- |
| COc1ccc(S(=O)(=O)N2CCC(n3c(C4CC4)nc4ccc(C(c5ccc(Cl)cc5)c5ccc(Cl)cc5)cc43)CC2)cc1C(=O)O [Example 211] | 6.23 | 4.99 |
| NC(=O)c1ccc(S(=O)(=O)N2CCC(n3c(C4CC4)nc4ccc(C(CO)(c5ccc(Cl)cc5)c5ccc(Cl)cc5)cc43)CC2)cc1Cl [Example 212] | 5.43 | < 5.00 |
| O=C(O)c1ccc(S(=O)(=O)N2CCC(n3c(C4CC4)nc4ccc(C(CO)(c5ccc(Cl)cc5)c5ccc(Cl)cc5)cc43)CC2)cc1Cl [Example 213] | 5.08 | < 5.00 |
| O=C(O)c1cc(S(=O)(=O)N2CCC(n3c(C4CC4)nc4ccc(C(c5ccc(Cl)cc5)c5ccc(Cl)cc5)cc43)CC2)ccc1Cl [Example 214] | 7.65 | 5.30 |
| Cc1cc(C(N)=O)sc1S(=O)(=O)N1CCC(n2c(C3CC3)nc3ccc(C(c4ccc(Cl)cc4)c4ccc(Cl)cc4)cc32)CC1 [Example 215] | 8.70 | < 5.00 |
| NC(=O)c1csc(S(=O)(=O)N2CCC(n3c(C4CC4)nc4ccc(C(c5ccc(Cl)cc5)c5ccc(Cl)cc5)cc43)CC2)c1 [Example 216] | 8.21 | < 5.00 |
| NC(=O)c1cc(S(=O)(=O)N2CCC(n3c(C4CC4)nc4ccc(C(c5ccc(Cl)cc5)c5ccc(Cl)cc5)cc43)CC2)ccc1F [Example 217] | 8.04 | < 5.00 |
| Cc1cc(C(=O)O)sc1S(=O)(=O)N1CCC(n2c(C3CC3)nc3ccc(C(c4ccc(Cl)cc4)c4ccc(Cl)cc4)cc32)CC1 [Example 218] | 8.14 | 5.84 |
| O=S(=O)(c1ccc(O)c(F)c1)N1CCC(n2c(C3CC3)nc3ccc(C(c4ccc(Cl)cc4)c4ccc(Cl)cc4)cc32)CC1 [Example 220] | 5.86 | 5.23 |
| O=S(=O)(c1cc(Cl)c(O)c(Cl)c1)N1CCC(n2c(C3CC3)nc3ccc(C(c4ccc(Cl)cc4)c4ccc(Cl)cc4)cc32)CC1 [Example 222] | 7.96 | 5.30 |
| NC(=O)c1ccc(C(=O)N2CCC(n3c(C4CC4)nc4ccc(C(c5ccc(Cl)cc5)c5ccc(Cl)cc5)cc43)CC2)cn1 [Example 223] | 7.61 | 5.48 |
| NC(=O)c1ccc(S(=O)(=O)N2CCC(n3c(C4CC4)nc4ccc(C(c5ccc(Cl)cc5)c5ccc(Cl)cc5)cc43)CC2)o1 [Example 224] | 8.22 | < 5.00 |
| COc1ccc(S(=O)(=O)N2CCC(n3c(C4CC4)nc4ccc(C(c5ccc(Cl)cc5)c5ccc(Cl)cc5)cc43)CC2)cc1F [Example 225] | 7.38 | < 5.00 |
| O=C(O)c1cc(S(=O)(=O)N2CCC(n3c(C4CC4)nc4ccc(C(c5ccc(Cl)cc5)c5ccc(Cl)cc5)cc43)CC2)ccc1F [Example 226] | 7.78 | 5.11 |
| NC(=O)c1ccc(S(=O)(=O)N2CCC(n3c(C4CC4)nc4ccc(C(CO)(c5ccc(Cl)cc5)c5ccc(Cl)cc5)cc43)CC2)cc1 [Example 227] | 5.69 | < 5.00 |
| O=C(O)c1ccc(S(=O)(=O)N2CCC(n3c(C4CC4)nc4ccc(C(CO)(c5ccc(Cl)cc5)c5ccc(Cl)cc5)cc43)CC2)cc1 [Example 228] | 5.08 | < 5.00 |
| NS(=O)(=O)c1cccc(C(=O)N2CCC(n3c(C4CC4)nc4ccc(C(c5ccc(Cl)cc5)c5ccc(Cl)cc5)cc43)CC2)c1 [Example 229] | 7.86 | 5.75 |
| NS(=O)(=O)c1ccc(C(=O)N2CCC(n3c(C4CC4)nc4ccc(C(c5ccc(Cl)cc5)c5ccc(Cl)cc5)cc43)CC2)cc1 [Example 230] | 7.04 | 5.23 |
| O=C(O)c1ccc(C(=O)N2CCC(n3c(C4CC4)nc4ccc(C(c5ccc(Cl)cc5)c5ccc(Cl)cc5)cc43)CC2)cn1 [Example 231] | 6.15 | < 5.00 |
| O=C(CCO)N1CCC(n2c(C3CC3)nc3ccc(C(c4ccc(Cl)cc4)c4ccc(Cl)cc4)cc32)CC1 [Example 234] | 7.79 | 5.02 |
| NC(=O)c1ccc(S(=O)(=O)N2CCC(n3c(C4CC4)nc4ccc(C(c5ccc(Cl)cc5)c5ccc(Cl)cc5)cc43)CC2)cn1 [Example 238] | 8.72 | < 5.00 |
| O=C(CO)N1CCC(n2c(C3CC3)nc3ccc(C(c4ccc(Cl)cc4)c4ccc(Cl)cc4)cc32)CC1 [Example 240] | 7.83 | 5.68 |
| O=C(O)c1ccccc1S(=O)(=O)N1CCC(n2c(C3CC3)nc3ccc(C(c4ccc(Cl)cc4)c4ccc(Cl)cc4)cc32)CC1 [Example 241] | 6.34 | 5.10 |
| NC(=O)c1ccccc1S(=O)(=O)N1CCC(n2c(C3CC3)nc3ccc(C(c4ccc(Cl)cc4)c4ccc(Cl)cc4)cc32)CC1 [Example 243] | 7.44 | 6.46 |
| CCc1nc2ccc(C(CO)(c3ccc(Cl)cc3)c3ccc(Cl)cc3)cc2n1C1CCN(S(=O)(=O)C(F)(F)F)CC1 [Example 244] | 6.27 | < 5.00 |
